Assay results: ChEMBL document CHEMBL1201862, “PubChem BioAssay data set” (2004)
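Step 1: Grow cells in 96-well plates. Step 2: Expose to compound for 48 hours at 5 concentrations. Step 3: Interpolate endpoints linearly; if unreached, use highest concentration. At the GI50, growth is halved.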 The source made the active and inactive calls. No stated cut-off is given here; in the data, active = GI50 up to about 1.1 µM and inactive = higher.

Legend:
Assay in all cases: inhibition of tumour cell growth, NCI panel, 48 h
[1] = test system: IGROV-1
[2] = test system: OVCAR-8
[3] = test system: SNB-19
[4] = test system: MDA-N
[5] = test system: K562
[6] = test system: NCI-H226
[7] = test system: Hs-578T
[8] = test system: MOLT-4
[9] = test system: LOX IMVI
[10] = test system: KM12
[11] = test system: SK-MEL-28
[12] = test system: UACC-257
[13] = test system: PC-3
[14] = test system: SK-MEL-2
[15] = test system: SW-620
[16] = test system: NCI-H460
[17] = test system: Malme-3M
[18] = test system: RPMI-8226
[19] = test system: SF-539
[20] = test system: SR

SMILES | GI50 [1] | GI50 [2] | GI50 [3] | GI50 [4] | GI50 [5] | GI50 [6] | GI50 [7] | GI50 [8] | GI50 [9] | GI50 [10] | GI50 [11] | GI50 [12] | GI50 [13] | GI50 [14] | GI50 [15] | GI50 [16] | GI50 [17] | GI50 [18] | GI50 [19] | GI50 [20]
CC1OC(O[C@H]2C3C=CO[C@@H](OC4OC(CO)C(O)C(O)C4O)C3[C@@]3(COC(=O)/C=C/c4ccc(O)cc4)O[C@@H]23)C(O)C(O)C1O (some centres undefined) | > 100 µM (inactive) | > 100 µM (inactive) | > 100 µM (inactive) | > 100 µM (inactive) | > 100 µM (inactive) | > 100 µM (inactive) | > 100 µM (inactive) | > 100 µM (inactive) | > 100 µM (inactive) | > 100 µM (inactive) | > 100 µM (inactive) | > 100 µM (inactive) | > 100 µM (inactive) | > 100 µM (inactive) | > 100 µM (inactive) | > 100 µM (inactive) | > 100 µM (inactive) | > 100 µM (inactive) | – | –
CC(=O)/C(=C/c1ccccc1F)C(=O)c1ccccc1 | 44.2 µM (inactive) | 21.6 µM (inactive) | 60.7 µM (inactive) | 37.9 µM (inactive) | – | 76.4 µM (inactive) | 32.4 µM (inactive) | 2.19 µM (inactive) | 17.8 µM (inactive) | 30.9 µM (inactive) | 53.2 µM (inactive) | 25.9 µM (inactive) | 27.7 µM (inactive) | 27.5 µM (inactive) | 20.7 µM (inactive) | 25.1 µM (inactive) | – | 18.3 µM (inactive) | > 100 µM (inactive) | –
CCOC(=O)CO/N=C1/C(=C2/C(=O)Nc3ccccc32)Nc2ccccc21 | 2.58 µM (inactive) | 6.21 µM (inactive) | 10 µM (inactive) | > 100 µM (inactive) | > 100 µM (inactive) | – | 36.2 µM (inactive) | 22 µM (inactive) | > 100 µM (inactive) | 0.0955 µM (active) | > 100 µM (inactive) | > 100 µM (inactive) | 78.7 µM (inactive) | 39.6 µM (inactive) | 34.7 µM (inactive) | > 100 µM (inactive) | > 100 µM (inactive) | > 100 µM (inactive) | 41.1 µM (inactive) | –
C[C@@H](c1ccccc1)n1c(N)c(-c2ccccn2)c2ccc([N+](=O)[O-])cc2c1=O | – | 51.2 µM (inactive) | 35.2 µM (inactive) | 88.7 µM (inactive) | – | 36.6 µM (inactive) | 26.9 µM (inactive) | – | > 100 µM (inactive) | 67.9 µM (inactive) | > 100 µM (inactive) | 22.2 µM (inactive) | 17.5 µM (inactive) | > 100 µM (inactive) | > 100 µM (inactive) | 43.1 µM (inactive) | – | – | – | 32.6 µM (inactive)
CCCCCCCCCCCCCCCCCC(=O)OCC(COC1OC(COP(=O)(O)O)C(O)C(O)C1O)OC(=O)CCCCCCCCCCCCCCCCC (centres undefined) | 4.02 µM (inactive) | 7.35 µM (inactive) | 8 µM (inactive) | 10.7 µM (inactive) | 9.89 µM (inactive) | 4.21 µM (inactive) | 6.14 µM (inactive) | 7.5 µM (inactive) | 9.06 µM (inactive) | 6.27 µM (inactive) | 9.98 µM (inactive) | 8.61 µM (inactive) | 7.62 µM (inactive) | – | 10.3 µM (inactive) | 11.7 µM (inactive) | 7.52 µM (inactive) | 13.6 µM (inactive) | 9.44 µM (inactive) | 0.0227 µM (active)
O=[N+]([O-])c1ccc(Cl)cc1N/N=C/c1cccs1 | > 100 µM (inactive) | > 100 µM (inactive) | > 100 µM (inactive) | > 100 µM (inactive) | > 100 µM (inactive) | 38.5 µM (inactive) | 72.4 µM (inactive) | > 100 µM (inactive) | – | > 100 µM (inactive) | > 100 µM (inactive) | > 100 µM (inactive) | > 100 µM (inactive) | – | > 100 µM (inactive) | > 100 µM (inactive) | – | > 100 µM (inactive) | > 100 µM (inactive) | > 100 µM (inactive)
CCCCCCCCCCCCC/C=C/[C@@H](O)[C@H](COC1OC(CO)C(OC2OC(CO)C(O)C(OC3(C(=O)O)CC(O)C(NC(C)=O)C(C(O)C(O)CO)O3)C2O)C(O)C1O)N=[N+]=[N-] (some centres undefined) | 32.9 µM (inactive) | 21.8 µM (inactive) | 34 µM (inactive) | > 100 µM (inactive) | 27.4 µM (inactive) | 20.8 µM (inactive) | 55.7 µM (inactive) | 21.7 µM (inactive) | 20.2 µM (inactive) | 18.5 µM (inactive) | 30.3 µM (inactive) | 40 µM (inactive) | 24.2 µM (inactive) | 17.5 µM (inactive) | 26.7 µM (inactive) | 36.9 µM (inactive) | 21.8 µM (inactive) | 95.3 µM (inactive) | 17.5 µM (inactive) | –
COc1cc(/C=C2/C[C@H]3[C@@H]4CCC5=CC(=O)CC[C@]5(C)[C@H]4CC[C@]3(C)NC2=O)cc(OC)c1OC | 24.7 µM (inactive) | 23.7 µM (inactive) | 45 µM (inactive) | 26.4 µM (inactive) | – | 28.8 µM (inactive) | 23 µM (inactive) | 10.2 µM (inactive) | – | 26.7 µM (inactive) | 29 µM (inactive) | 20.7 µM (inactive) | 21.1 µM (inactive) | 24.8 µM (inactive) | 36.7 µM (inactive) | 28.4 µM (inactive) | 26.7 µM (inactive) | 9.64 µM (inactive) | – | –
NC(=S)N/N=C1\CCCCC1C(O)(C(F)(F)Cl)C(F)(F)Cl (centres undefined) | > 10 µM (inactive) | > 10 µM (inactive) | > 10 µM (inactive) | > 10 µM (inactive) | > 10 µM (inactive) | > 10 µM (inactive) | > 10 µM (inactive) | > 10 µM (inactive) | > 10 µM (inactive) | > 10 µM (inactive) | > 10 µM (inactive) | > 10 µM (inactive) | > 10 µM (inactive) | > 10 µM (inactive) | > 10 µM (inactive) | > 10 µM (inactive) | > 10 µM (inactive) | > 10 µM (inactive) | > 10 µM (inactive) | –
Cc1cc2nn(C3CCCCO3)nc2cc1C (centres undefined) | > 100 µM (inactive) | > 100 µM (inactive) | > 100 µM (inactive) | > 100 µM (inactive) | > 100 µM (inactive) | > 100 µM (inactive) | > 100 µM (inactive) | > 100 µM (inactive) | – | > 100 µM (inactive) | – | > 100 µM (inactive) | > 100 µM (inactive) | > 100 µM (inactive) | – | > 100 µM (inactive) | > 100 µM (inactive) | – | > 100 µM (inactive) | > 100 µM (inactive)
c1ccc2c(c1)N[C@@H]1c3[nH]c4ccccc4c3CC[C@H]21 | 3.95 µM (inactive) | 12.9 µM (inactive) | 17.6 µM (inactive) | 19.6 µM (inactive) | 14 µM (inactive) | 12.5 µM (inactive) | 10.2 µM (inactive) | 13.9 µM (inactive) | 16 µM (inactive) | 14 µM (inactive) | 18.5 µM (inactive) | 26.9 µM (inactive) | 11.9 µM (inactive) | 13.9 µM (inactive) | 17.7 µM (inactive) | 16.8 µM (inactive) | 5.13 µM (inactive) | 14.7 µM (inactive) | 16.6 µM (inactive) | –
CCc1n[nH]c(=O)n1N | > 100 µM (inactive) | > 100 µM (inactive) | > 100 µM (inactive) | – | > 100 µM (inactive) | > 100 µM (inactive) | > 100 µM (inactive) | > 100 µM (inactive) | > 100 µM (inactive) | > 100 µM (inactive) | > 100 µM (inactive) | > 100 µM (inactive) | > 100 µM (inactive) | > 100 µM (inactive) | > 100 µM (inactive) | > 100 µM (inactive) | > 100 µM (inactive) | > 100 µM (inactive) | > 100 µM (inactive) | > 100 µM (inactive)
Clc1c2ncccc2cc2nn[nH]c12 | 33 µM (inactive) | > 100 µM (inactive) | > 100 µM (inactive) | > 100 µM (inactive) | > 100 µM (inactive) | 21.3 µM (inactive) | 93.8 µM (inactive) | 15.8 µM (inactive) | – | > 100 µM (inactive) | > 100 µM (inactive) | > 100 µM (inactive) | > 100 µM (inactive) | > 100 µM (inactive) | > 100 µM (inactive) | 49.2 µM (inactive) | 79.3 µM (inactive) | > 100 µM (inactive) | > 100 µM (inactive) | 23.3 µM (inactive)
COc1ccc2c(c1)/C(=C\c1c(Cl)nc3n1CCS3)C(=O)N2 | 7.28 µM (inactive) | 19.7 µM (inactive) | 14.6 µM (inactive) | 1.48 µM (inactive) | 3.02 µM (inactive) | – | 11.2 µM (inactive) | 4.01 µM (inactive) | 9.71 µM (inactive) | 2.62 µM (inactive) | 18.7 µM (inactive) | 5.48 µM (inactive) | 3.36 µM (inactive) | – | 4.94 µM (inactive) | 3.71 µM (inactive) | 11.2 µM (inactive) | 4.03 µM (inactive) | 4.65 µM (inactive) | –
C1CCSCCCCSCCCCSCCCCSC1 | > 100 µM (inactive) | > 100 µM (inactive) | > 100 µM (inactive) | > 100 µM (inactive) | > 100 µM (inactive) | > 100 µM (inactive) | > 100 µM (inactive) | – | > 100 µM (inactive) | > 100 µM (inactive) | > 100 µM (inactive) | > 100 µM (inactive) | > 100 µM (inactive) | > 100 µM (inactive) | > 100 µM (inactive) | > 100 µM (inactive) | – | > 100 µM (inactive) | > 100 µM (inactive) | –
